Measurements published in publication PMC11475369, “Exploring the Potential of Synthetic Cannabinoids: Modulation of Biological Activity of Normal and Cancerous Human Colon Epithelial Cells” (Cells, 2024).
≈ marks a conversion by molar mass, not a printed value.

Assays:
[1] = system: HT29 cells; experiment: Flow cytometry annexin V-FITC/PI, cell death types in HT29 cells; format: cell-based, human; settings: HT29, 25 μg/mL, 24 h
Method: (§1) In a further flow cytometric study measuring normal and tumor cell death types, the cells were exposed to the cannabinoids at a concentration of 25 μg/mL for 24 h.
(§2) The annexin V-fluorescein isothiocyanate (FITC)/propidium iodide (PI) apoptosis kit (BD Biosciences, BD Pharmingen™, San Jose, CA, USA) was used for the quantitative analysis of cannabinoid-induced cell death.
(§3) For the analyses, both adhered (after detaching the cells with 10 mM EDTA in PBS w/o Ca^2+ and Mg^2+ ions solution) and floating cells were collected after 24 h of incubation with the tested cannabinoids. After collection, the cells were gently centrifuged (1000 rpm/5 min.). Next, the supernatant was discarded, and the cell pellet was suspended in warm PBS w/o Ca^2+ and Mg^2+ ions and incubated for 5 min. at room temperature. The centrifugation procedure was repeated again and, following the manufacturer’s procedure, the cells were suspended in 100 μL of 1X Annexin V Binding Buffer with 5 μL of FITC Annexin V […] and 5 μL of propidium iodide (PI) (5 mM). The preparation was gently vortexed and incubated at room temperature for 15 min. in the dark. After that time, the cells were subjected to cytometric analysis. Before dosing the cells into the cytometer, 400 μL of 1X Binding Buffer was added. The cells were analyzed using a flow cytometer (BD FACSCalibur) with CellQuest Pro Version 6.0 software within 1 h after the staining was completed.

[2] = system: CCD 841 CoTr cells; experiment: MTT assay, metabolic activity of CCD 841 CoTr cells; format: cell-based, human; settings: Homo sapiens, CCD-841, 24 h, CCD 841 CoTr colon normal cells, 24 h incubation; read-out: IC50 Values (MTT method)
Method: (§4) The HT29 cell line (ATCC no. HTB-38) (human colon adenocarcinoma) was used in the present study. Cells were cultivated in RPMI 1640 culture medium with 10% fetal calf serum (FCS) (GibcoTM, Paisley, UK), supplemented with antibiotics (100 U/mL penicillin and 100 μg/mL streptomycin) (Sigma, St. Louis, MO, USA). The cell culture was performed in standard conditions, i.e., at 37 °C in a humidified atmosphere with 5% CO2. The CCD 841 CoTr cell line (ATCC no. CRL-1807) (human normal colon epithelium) was cultivated in RPMI 1640 +DMEM (1:1) medium (Sigma, St. Louis, MO, USA) with 10% FCS and the addition of antibiotics. The culture was carried out at 34 °C in a 5% CO2/95% air atmosphere.
(§5) After seeding (1 × 10^5 cells/mL) in a 96-well plate, the cells were incubated for 24 h. Thereafter, the tested compounds (100 μL) at a concentration range of 0–200 μg/mL in the culture medium were added to the wells (100 μL). The incubation lasted for 24 h. After that time, an MTT solution (5 mg/mL, 25 μL/well) was added to each well. The incubation was continued for another 3 h. After the incubation, 10% sodium dodecyl sulfate (SDS) in 0.01 M HCl (100 μL) was added in order to dissolve the purple formazan crystals. Solubilization was carried out overnight. Finally, spectrophotometric measurement was performed at 570 nm using an EL800 Universal Microplate Reader (BioTek Instruments, Winooski, VT, USA).

[3] = system: HT29 cells; experiment: MTT assay, metabolic activity of HT29 cells; format: cell-based; settings: Homo sapiens, HT-29; HT29 colon tumor cells, 24 h incubation; read-out: IC50 Values (MTT method)
Method: as §4, §5

[4] = system: HT29 cells; experiment: Neutral Red (NR) uptake assay, viability of HT29 cells; format: cell-based; settings: Homo sapiens, HT-29; HT29 colon tumor cells, 24 h incubation
Method: as §4
(§6) After seeding (1 × 10^5 cells/mL) in a 96-well plate, the cells were incubated for 24 h. Thereafter, the tested compounds (100 μL) at a concentration range of 0–200 μg/mL in the culture medium were added to the wells (100 μL). The incubation lasted for 24 h. After that time, the culture medium was removed and a 0.4% Neutral Red solution in the culture medium was added to each well. The incubation was continued for another 3 h. After the incubation, the medium with the NR dye was discarded, and 4% paraformaldehyde in 1% CaCl2 was added for cell fixation (200 μL) and incubated for 3 min. Intracellular dye deposits were solubilized using 1% […] in a 50% ethanol solution (100 μL). The plates were then gently shaken (20 min.) at room temperature to dissolve and release the dye from the cells. Finally, spectrophotometric measurement was performed at 540 nm using an EL800 Universal Microplate Reader (BioTek Instruments, Winooski, VT, USA).

[5] = system: CCD 841 CoTr cells; experiment: Flow cytometry (PI) cell cycle analysis of CCD 841 CoTr cells; format: cell-based, human; settings: 25 μg/mL, 24 h
Method: In the flow cytometric study, we assessed the impact of the cannabinoids at a concentration of 25 μg/mL on the distribution of cell cycle phases in the normal and cancer cells after 24 h incubation. Both adhered, and non-adsorbed (floating) cells were used to perform the analyses. They were collected after 24 h of incubation with the tested cannabinoids and centrifuged (3000 rpm/5 min.). Next, the cell pellet was rinsed and suspended in PBS w/o Ca^2+ and Mg^2+ ions and centrifuged again (3000 rpm/5 min.). The cell pellet was suspended and fixed in 70% ethanol (1 mL). Untreated cells served as a control. The cells were stored at −20 °C for 1 week. After that time, in accordance with the manufacturer protocol, the cells were subjected to the PI staining procedure (PI/RNase Staining Buffer, BD PharmingenTM, BD Biosciences, San Jose, CA, USA). Briefly, 1 mL of PBS w/o Ca^2+ and Mg^2+ ions was added to 1 mL of ethanol and incubated with gentle stirring for 5 min. at room temperature. Next, the cells were centrifuged (3000 rpm/5 min.) and suspended in PBS w/o Ca^2+ and Mg^2+ ions with gentle stirring for 5 min. at room temperature. The cells were centrifuged once again (3000 rpm/5 min.) and the cell pellet was suspended in 500 μL of PI/RNase Staining Buffer. The incubation was carried out for 15 min. at room temperature. Finally, the intensity of the PI fluorescence was measured using FACS Calibur (BD Pharmingen^TM). The obtained data were analyzed using Cell Quest Pro Version 6.0. for the Macintosh operating system (BD Pharmingen^TM). The percentage of cells in the appropriate phases of the cycle was calculated based on all analyzed gated cells. A total of 10,000 events were measured per sample.

[6] = Flow cytometry annexin V-FITC/PI, cell death types in CCD 841 CoTr cells; format: cell-based, human; settings: human, CCD 841 CoTr cells (normal cells), read-out: Percentage of viable cells
Method: as §1, §2, §3

[7] = system: CCD 841 CoTr cells; experiment: as above; format: cell-based, human; settings: 25 μg/mL, 24 h
Method: as §1, §2, §3

[8] = system: CCD 841 CoTr cells; experiment: Nitric oxide (NOx) release in CCD 841 CoTr culture, Griess method; format: cell-based, human; settings: CCD 841 CoTr normal cells, 0–200 μg/mL, 24 h
Method: In this spectrophotometric method, the stable end products (nitrate and nitrite) were analyzed in the normal and tumor culture supernatants after 24 h of incubation of the cells with the cannabinoids in the concentration range of 0–200 μg/mL. The Griess reaction was applied. This method involves a 2-step reaction, whose product is a red-pink azo dye. The amount of this dye is directly proportional to the amount of NO. The cells were cultured for 24 h in 24-well plates (1 mL/well, density 1 × 10^5 cells/mL); next, after withdrawing the culture fluid, the tested cannabinoids were added to the wells at a volume of 1 mL/well and the incubation was carried out for another 24 h. After the incubation, the culture media were collected and frozen at −80 °C for no longer than 1 month. For calibration and quantitative analysis, the standard curve was prepared using 0.5–25 μM sodium nitrite (NaNO2). Thawed and centrifuged (5000 rpm/5 min.) supernatant samples and the standard were poured into a 96-well flat-bottomed plate at 100 µL/well. Each sample was analyzed in triplicate. Subsequently, 100 µL/well of Griess reagent (1% sulfanilamide/0.1% N-(1-naphthyl)ethylenediamine dihydrochloride) in 3% H3PO4 was added to all wells and incubated at room temperature for 10 min. Finally, the absorbance of the samples was spectrophotometrically read at 570 nm using an EL800 Universal Microplate Reader (BioTek Instruments, Winooski, VT, USA).

[9] = system: CCD 841 CoTr cells; experiment: Neutral Red (NR) uptake assay, viability of CCD 841 CoTr cells; format: cell-based; settings: Homo sapiens; CCD 841 CoTr colon normal cells, 24 h incubation
Method: as §4, §6

With C=C(C)[C@@H]1CCC(C)=C[C@H]1c1c(O)cc(CCCCC)cc1O [CBD, cannabidiol] the “Percentage of cells in early apoptosis” value [1] was 0.77 ± 0.21%, the “Percentage of cells in late apoptosis” value [1] was 17.03 ± 0.29 % and the “Percentage of cells in necrosis” value [1] was 0.67 ± 0.22%. For the same molecule, the “Reduction in the number of viable cells compared to the control” value [1] was 13.62%, the viability at 25 µg/mL ([1]; Homo sapiens, HT-29, read-out: Percentage of viable cells) was 81.54 ± 0.28% and the IC50 [2] was 42.6 mg/L (≈ 135 µM). For the same molecule, the IC50 [3] was 57.5 mg/L (≈ 183 µM), the IC50 [4] was 60.5 mg/L (≈ 192 µM) and the “Increase in the number of cells in the sub-G1 phase compared to the control” value [5] was 21.88%. For the same molecule, the “Percentage of cells in G1 phase” value [5] was 21.89 ± 0.34 %, the “Percentage of cells in G2 phase” value [5] was 14.10 ± 0.19 % and the “Percentage of cells in S phase” value [5] was 16.39 ± 0.04 %. For the same molecule, the “Percentage of cells in sub-G1 phase” value [5] was 44.01 ± 0.37 %, the viability at 24 h, 25 μg/mL [6] was 79.4 ± 1.18% and the “Cells in late apoptosis, more than in the control” value [7] was 11.36%. The “Cells in necrosis, more than in the control” value [7] was 1.43%, the “Percentage of cells in early apoptosis” value [7] was 1.97 ± 0.19% and the “Percentage of cells in late apoptosis” value [7] was 16.96 ± 1.26 %. For the same molecule, the “Percentage of cells in necrosis” value [7] was 1.71 ± 0.28 %, the “Reduction in the number of viable normal cells compared to the control” value [7] was 12.95% and the “Effect on release of nitric oxide NOx (in words)” value [8] was “increase in NOx levels with increasing concentration”. The IC50 [9] was 48.2 mg/L (≈ 153 µM).
